# Measurements taken from US8829213B2, “Liver X receptor agonists” (The University of Chicago, priority 2009, dated 2014).
# Experiments:
# [1] = test system: human LXRα or LXRβ; test: Luciferase-based reporter gene assay for LXR agonism; format: cell-based; details: HEK293 cells co-transfected with human LXRα or LXRβ, 48 hours
# Protocol: The ability of Compound 1 to act as an LXR agonist was tested using a luciferase-based reporter gene assay according to the method described in Graham et al., Virology, 1973, 52:456. The assay is described below:
# Wells of a 48-well plate were seeded with 50,000 human embryonic kidney (HEK293) cells in 0.25 mL of Dulbecco's modified Eagle's media containing 10% charcoal-stripped fetal bovine serum (DMEM+10% CS-FBS). HEK293 cells were co-transfected with various plasmid DNAs using a calcium phosphate co-precipitation method (Graham et al., Virology, 1973, 52:456). To each well was added 0.25 mL of a transfection mix (1.36 mL transfection components and 11.5 mL DMEM+10% CS-FBS) containing 60 ng of a firefly luciferase-based reporter plasmid, 60 ng of pSG5 containing human LXRα or LXRβ cDNA, 0.6 ng of the sea pansy luciferase normalization plasmid phRL-TK (Promega), and 220 ng of pBS/SK+II. […] Firefly and sea pansy luciferase activities in the lysate were measured using a dual luciferase assay (Promega) and a Monolight luminometer. […] Fold activation of the firefly luciferase reporter plasmid was calculated from normalized relative light units in the presence and absence of the test compound.
# [2] = test system: LDLR−/− mice; test: Reduction of plasma cholesterol and triglyceride levels in LDLR−/− mice fed an atherogenic diet; format: in vivo; details: 8 weeks
# Protocol: (§1) Eight-week old male LDLR−/− mice on a C57BL/6 background (obtained from Jackson Laboratory) were fed an atherogenic diet (TD94059, Harlan TEKLAD, Madison, Wis.) for 8 weeks. During the same period, the mice received Compound 1 daily by gavage at a dose of 3 or 5 mg/kg in a microemulsion prepared by the method described in Gao et al., Int J Pharm 1998, 161:75-86). The control group (vehicle) received a microemulsion without Compound 1. After 8 weeks, the mice were fasted for 4 hours and anesthetized with ketamine (100 mg/kg) and xylazine (10 mg/kg). A blood sample was collected from the retro-orbital plexus of each mouse. 200 μl of plasma was fractionated on tandem Superose 6 fast protein liquid chromatography columns (Reardon et al., 2001). Cholesterol and triglyceride in the even-numbered fast protein liquid chromatography fractions and in plasma samples were measured using commercial kits (Stanbio Laboratory, Boerne, Tex.).
# [3] = test system: LDLR−/− mice; test: Atherosclerotic lesion quantification in LDLR−/− mice fed an atherogenic diet; format: in vivo; details: 8 weeks
# Protocol: as §1
# The mice were then perfused transcardially with PBS and then paraformaldehyde. The hearts and upper vasculatures were removed and prepared for histology as described in Reardon et al., Arterioscler Thromb Vasc Biol 2001, 21:1011-1016.
# Lesions in the innominate artery were quantified using 4 digitally captured oil red O-stained 10 μm sections, separated by 100 μm and located 150-450 μm distal to the branch point of the innominate artery from the aortic arch. Lesions in the ascending thoracic aorta were assessed from three sections separated by 100 μm and located 100-300 μm below the apex of the lesser curvature of the aortic arch. Aortic sinus lesions were evaluated from 3 sections, separated by 100 μm and beginning at the site of appearance of the coronary artery. OpenLab software version 3.1.5 was used in the quantification.
# [4] = daily gavage 3 or 5 mg/kg, vs vehicle
compound,measurement,setting,value
CC(/C=C/C(O)(C(F)(F)F)C(F)(F)F)C1CCC2C3C[C@H](O)[C@@H]4C[C@H](O)CCC4(C)C3CCC12C (some centres unmarked) [Compound 1],LXR agonist activity (fold activation of firefly luciferase reporter),[1],very effective LXR agonist
same,HDL cholesterol level,[2]; 3 mg/kg daily gavage,not
same,VLDL cholesterol level,[2]; 3 mg/kg daily gavage,reduced
same,triglyceride levels,[2]; 3 mg/kg daily gavage,reduced
same,HDL cholesterol level,[2]; 5 mg/kg daily gavage,not
same,LDL cholesterol level,[2]; 5 mg/kg daily gavage,reduced
same,VLDL cholesterol level,[2]; 5 mg/kg daily gavage,reduced
same,triglyceride levels,[2]; 5 mg/kg daily gavage,reduced
same,cholesterol level in the blood,[2]; [4],marked decrease
same,triglyceride level in the blood,[2]; [4],marked decrease
same,"mean atherosclerotic lesion area, aortic root",[3]; 3 mg/kg/day,significantly reduced
same,"atherosclerotic plaque size, ascending aorta arch",[3]; 5 mg/kg/day,significantly reduced
same,"atherosclerotic plaque size, innominate artery",[3]; 5 mg/kg/day,significantly reduced
same,"mean atherosclerotic lesion area, aortic root",[3]; 5 mg/kg/day,significantly reduced
